Assays:
Assay in all cases: MIC assay, microtitre broth dilution
Assay type in all cases: cell-based
[1] = system: P. aeruginosa PAE/K799 H187; settings: P. aeruginosa PAE/K799 H187 wt, Gram −; Mueller Hinton broth, 37° C., 24 h
Method: (§1) MIC assays were conducted essentially as described by Amsterdam, D. 1996, “Susceptibility testing of antimicrobials in liquid media,” p. 52-111. In Loman, V., ed. Antibiotics in Laboratory Medicine, 4th ed. Williams and Wilkins, Baltimore, Md. Briefly, a variety of compounds were tested for antibacterial activity against isolates of P. aeruginosa, K. pneumoniae , E. coli, S. epidermidus, and S. aureus in the MIC (minimum inhibitory concentration) assay under aerobic conditions using 96 well polystyrene microtitre plates (Falcon 1177), and Mueller Hinton broth at 37° C. incubated for 24 h. (MHB was used for most testing except C721 (S. pyogenes), which used Todd Hewitt broth, and Haemophilus influenzae, which used Haemophilus test medium (HTM)). Tests were conducted in triplicate.

[2] = system: K. pneumoniae ATCC13883 C238; settings: K. pneumoniae ATCC13883 C238 wt, Gram −; Mueller Hinton broth, 37° C., 24 h
Method: as §1

S. epidermidis C621 = S. epidermidis C621 wt, Gram +; Mueller Hinton broth, 37° C., 24 h
Method: as §1

S. aureus ATCC25923 C622 = S. aureus ATCC25923 C622 wt, Gram +; Mueller Hinton broth, 37° C., 24 h
Method: as §1

E. Coli UB1005 C498 = E. Coli UB1005 C498 wt, Gram −; Mueller Hinton broth, 37° C., 24 h
Method: as §1

S. pyogenes C721 = S. pyogenes C721 wt, Gram +; Todd Hewitt broth, 37° C., 24 h
Method: as §1

Question: For `Sc1ncc2[nH]cnc2n1` [2-mercaptopurine], which Minimum inhibitory concentration [1] is on record?
Answer: Its Minimum inhibitory concentration is “N”.

Question: What about the Minimum inhibitory concentration [2] of the same compound?
Answer: The Minimum inhibitory concentration was “N”.

Question: What about the Minimum inhibitory concentration (S. epidermidis C621) of the same compound?
Answer: Its Minimum inhibitory concentration is “N”.

Question: What about the Minimum inhibitory concentration (S. aureus ATCC25923 C622) of the same compound?
Answer: The Minimum inhibitory concentration was “N”.

Question: And the Minimum inhibitory concentration (E. Coli UB1005 C498)?
Answer: Its Minimum inhibitory concentration is “N”.

Question: What about the Minimum inhibitory concentration (S. pyogenes C721) of the same compound?
Answer: The Minimum inhibitory concentration was “N”.

Question: Which results are given for `O=c1[nH]cc(F)c(=O)[nH]1` [5-fluorouracil]?
Answer: Minimum inhibitory concentration [1]: 10^−5 molar; Minimum inhibitory concentration [2]: 10^−6 molar; Minimum inhibitory concentration (S. epidermidis C621): 10^−7 molar; Minimum inhibitory concentration (S. aureus ATCC25923 C622): 10^−7 molar; Minimum inhibitory concentration (E. Coli UB1005 C498): 10^−6 molar; Minimum inhibitory concentration (S. pyogenes C721): 10^−4 molar

Question: For `Sc1ncnc2nc[nH]c12` [6-mercaptopurine], which Minimum inhibitory concentration [1] is on record?
Answer: Its Minimum inhibitory concentration is “N”.

Question: And the Minimum inhibitory concentration [2]?
Answer: Its Minimum inhibitory concentration is “N”.

Question: And the Minimum inhibitory concentration (S. epidermidis C621)?
Answer: The Minimum inhibitory concentration was “N”.

Question: And the Minimum inhibitory concentration (S. aureus ATCC25923 C622)?
Answer: The Minimum inhibitory concentration was “N”.

Question: What about the Minimum inhibitory concentration (E. Coli UB1005 C498) of the same compound?
Answer: Its Minimum inhibitory concentration is “N”.

Question: And the Minimum inhibitory concentration (S. pyogenes C721)?
Answer: The Minimum inhibitory concentration was “N”.

Question: What does the source list for `Nc1ccn([C@@H]2O[C@H](CO)[C@@H](O)[C@@H]2O)c(=O)n1` [Cytarabine]?
Answer: Minimum inhibitory concentration [1]: N; Minimum inhibitory concentration [2]: N; Minimum inhibitory concentration (S. epidermidis C621): N; Minimum inhibitory concentration (S. aureus ATCC25923 C622): N; Minimum inhibitory concentration (E. Coli UB1005 C498): N; Minimum inhibitory concentration (S. pyogenes C721): N

Question: With `CC[C@@]1(O)C(=O)OCc2c1cc1n(c2=O)Cc2cc3ccccc3nc2-1` [camptothecin] as the compound, how does the Minimum inhibitory concentration [1] read?
Answer: The Minimum inhibitory concentration was “N”.

Question: And the Minimum inhibitory concentration [2]?
Answer: The Minimum inhibitory concentration was “N”.

Question: And the Minimum inhibitory concentration (S. epidermidis C621)?
Answer: Its Minimum inhibitory concentration is 10^−4 molar.

Question: What about the Minimum inhibitory concentration (S. aureus ATCC25923 C622) of the same compound?
Answer: The Minimum inhibitory concentration was “N”.

Question: What about the Minimum inhibitory concentration (E. Coli UB1005 C498) of the same compound?
Answer: Its Minimum inhibitory concentration is “N”.

Question: What about the Minimum inhibitory concentration (S. pyogenes C721) of the same compound?
Answer: Its Minimum inhibitory concentration is “N”.

Question: With `COc1cccc2c1C(=O)c1c(O)c3c(c(O)c1C2=O)C[C@@](O)(C(=O)CO)C[C@@H]3O[C@H]1C[C@H](N)[C@H](O)[C@H](C)O1` [doxorubicin] as the compound, how does the Minimum inhibitory concentration [1] read?
Answer: Its Minimum inhibitory concentration is 10^−5 molar.

Question: And the Minimum inhibitory concentration [2]?
Answer: Its Minimum inhibitory concentration is 10^−6 molar.

Question: And the Minimum inhibitory concentration (S. epidermidis C621)?
Answer: Its Minimum inhibitory concentration is 10^−6 molar.

Question: What about the Minimum inhibitory concentration (S. aureus ATCC25923 C622) of the same compound?
Answer: Its Minimum inhibitory concentration is 10^−5 molar.

Question: And the Minimum inhibitory concentration (E. Coli UB1005 C498)?
Answer: Its Minimum inhibitory concentration is 10^−4 molar.

Question: What about the Minimum inhibitory concentration (S. pyogenes C721) of the same compound?
Answer: Its Minimum inhibitory concentration is 10^−7 molar.

Question: What does the source list for `COc1cc([C@@H]2c3cc4c(cc3[C@@H](O[C@@H]3O[C@@H]5CO[C@@H](C)O[C@H]5[C@H](O)[C@H]3O)[C@H]3COC(=O)[C@H]23)OCO4)cc(OC)c1O` [etoposide]?
Answer: Minimum inhibitory concentration [1]: N; Minimum inhibitory concentration [2]: 10^−5 molar; Minimum inhibitory concentration (S. epidermidis C621): 10^−6 molar; Minimum inhibitory concentration (S. aureus ATCC25923 C622): 10^−5 molar; Minimum inhibitory concentration (E. Coli UB1005 C498): N; Minimum inhibitory concentration (S. pyogenes C721): 10^−5 molar

Question: What does the source list for `NC(=O)NO` [hydroxyurea]?
Answer: Minimum inhibitory concentration [1]: 10^−4 molar; Minimum inhibitory concentration [2]: N; Minimum inhibitory concentration (S. epidermidis C621): N; Minimum inhibitory concentration (S. aureus ATCC25923 C622): N; Minimum inhibitory concentration (E. Coli UB1005 C498): N; Minimum inhibitory concentration (S. pyogenes C721): 10^−4 molar

Question: Which results are given for `CN(Cc1cnc2nc(N)nc(N)c2n1)c1ccc(C(=O)N[C@@H](CCC(=O)O)C(=O)O)cc1` [methotrexate]?
Answer: Minimum inhibitory concentration [1]: N; Minimum inhibitory concentration [2]: 10^−6 molar; Minimum inhibitory concentration (S. epidermidis C621): N; Minimum inhibitory concentration (S. aureus ATCC25923 C622): 10^−5 molar; Minimum inhibitory concentration (E. Coli UB1005 C498): N; Minimum inhibitory concentration (S. pyogenes C721): 10^−6 molar

Question: How did the Minimum inhibitory concentration [1] turn out when `O=C1c2c(O)ccc(O)c2C(=O)c2c(NCCNCCO)ccc(NCCNCCO)c21` [mitoxantrone] was run?
Answer: The Minimum inhibitory concentration was 10^−5 molar.

Question: And the Minimum inhibitory concentration [2]?
Answer: Its Minimum inhibitory concentration is 10^−6 molar.

Question: What about the Minimum inhibitory concentration (S. epidermidis C621) of the same compound?
Answer: Its Minimum inhibitory concentration is 10^−5 molar.

Question: What about the Minimum inhibitory concentration (S. aureus ATCC25923 C622) of the same compound?
Answer: The Minimum inhibitory concentration was 10^−5 molar.

Question: And the Minimum inhibitory concentration (E. Coli UB1005 C498)?
Answer: The Minimum inhibitory concentration was 10^−5 molar.

Question: What about the Minimum inhibitory concentration (S. pyogenes C721) of the same compound?
Answer: The Minimum inhibitory concentration was 10^−6 molar.

Question: For `Nc1ncnc2c1ccn2[C@@H]1O[C@H](CO)[C@@H](O)[C@H]1O` [tubercidin], which Minimum inhibitory concentration [1] is on record?
Answer: The Minimum inhibitory concentration was “N”.

Question: And the Minimum inhibitory concentration [2]?
Answer: Its Minimum inhibitory concentration is “N”.

Question: What about the Minimum inhibitory concentration (S. epidermidis C621) of the same compound?
Answer: Its Minimum inhibitory concentration is “N”.

Question: And the Minimum inhibitory concentration (S. aureus ATCC25923 C622)?
Answer: The Minimum inhibitory concentration was “N”.

Question: And the Minimum inhibitory concentration (E. Coli UB1005 C498)?
Answer: Its Minimum inhibitory concentration is “N”.

Question: What about the Minimum inhibitory concentration (S. pyogenes C721) of the same compound?
Answer: Its Minimum inhibitory concentration is “N”.

Question: With cisplatin as the compound, how does the Minimum inhibitory concentration [1] read?
Answer: Its Minimum inhibitory concentration is 10^−4 molar.

Question: What about the Minimum inhibitory concentration [2] of the same compound?
Answer: The Minimum inhibitory concentration was “N”.

Question: What about the Minimum inhibitory concentration (S. epidermidis C621) of the same compound?
Answer: The Minimum inhibitory concentration was “N”.

Question: And the Minimum inhibitory concentration (S. aureus ATCC25923 C622)?
Answer: The Minimum inhibitory concentration was “N”.

Question: And the Minimum inhibitory concentration (E. Coli UB1005 C498)?
Answer: Its Minimum inhibitory concentration is “N”.

Question: What about the Minimum inhibitory concentration (S. pyogenes C721) of the same compound?
Answer: Its Minimum inhibitory concentration is “N”.

— patent US20110264139A1, “SUTURES AND FIBROSING AGENTS” (Angiotech Pharmaceuticals, Inc., priority 2006, published 2011)
